Laboratory results as given in US7544814B2, “[3.2.0] Heterocyclic compounds and methods of using the same” (Nereus Pharmaceuticals, Inc., priority 2004, dated 2009).
“And” between values parts separate entries of the source, which are not always exact repeats. Equal entries are not always repeated. Where two headings read alike, the source gives them in different places.

How the values were obtained:
[1] = tested on: NF-κB; assay: NF-κB-mediated luciferase reporter gene assay, HEK293 NF-κB/Luc cells, TNF-α stimulation; type: cell-based, human; conditions: for EC50: Homo sapiens
Method: The HEK293 NF-κB/luciferase reporter cell line is a derivative of the human embryonic kidney cell line (ATCC; CRL-1573) and carries a luciferase reporter gene under the regulation of 5× NF-κB binding sites. […] When performing the luciferase assay, the DMEM basal medium was replaced with phenol-red free DMEM basal medium and the G418 was omitted.
For NF-κB-mediated luciferase assays, HEK293 NF-κB/luciferase cells were seeded at 1.5×10^4 cells/well in 90 μl phenol-red free DMEM complete medium into Corning 3917 white opaque-bottom tissue culture plates. For Formula II-2, Formula II-4, Formula II-5A, and Formula II-18, a 400 μM starting dilution was made in 100% DMSO and this dilution was used to generate a 8-point half log dilution series. […] For Formula II-20, a 2.5 mM or 8 mM starting solution was made in 100% DMSO and the final test concentrations ranged from 6.3 μM to 2.0 nM or 20 μM to 6.3 nM, respectively. The plates were returned to the incubator for 1 hour. After 1 hr pretreatment, 10 μl of a 50 ng/ml TNF-α solution, prepared in the phenol-red free DMEM medium was added, and the plates were incubated for an additional 6 hr.
At the end of the TNF-α stimulation, 100 μl of Steady Lite HTS luciferase reagent (Packard Bioscience) was added to each well and the plates were left undisturbed for 10 min at room temperature before measuring the luciferase activity. The relative luciferase units (RLU) were measured by using a Fusion microplate fluorometer (Packard Bioscience).

[2] = target: T1, caspase-like activity of purified rabbit muscle 20S proteasome (Oryctolagus cuniculus, UniProt A0A5F9DQW2); assay: In vitro inhibition of 20S proteasome caspase-like activity (Z-LLE-AMC)
T1 sequence (A0A5F9DQW2 1-212): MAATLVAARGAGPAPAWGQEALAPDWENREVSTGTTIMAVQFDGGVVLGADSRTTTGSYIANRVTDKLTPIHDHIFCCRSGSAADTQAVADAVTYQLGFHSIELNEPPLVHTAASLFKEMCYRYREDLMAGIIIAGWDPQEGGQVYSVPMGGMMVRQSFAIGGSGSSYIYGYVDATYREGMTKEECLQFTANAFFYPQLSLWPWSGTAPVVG

[3] = tested on: HT-29; assay: Cell growth inhibition (resazurin), HT-29
[4] = target: T2, chymotrypsin-like activity of purified rabbit muscle 20S proteasome (Oryctolagus cuniculus, UniProt G1T4Q9); assay: In vitro inhibition of 20S proteasome chymotrypsin-like activity (suc-LLVY-AMC)
T2 sequence (G1T4Q9 1-263): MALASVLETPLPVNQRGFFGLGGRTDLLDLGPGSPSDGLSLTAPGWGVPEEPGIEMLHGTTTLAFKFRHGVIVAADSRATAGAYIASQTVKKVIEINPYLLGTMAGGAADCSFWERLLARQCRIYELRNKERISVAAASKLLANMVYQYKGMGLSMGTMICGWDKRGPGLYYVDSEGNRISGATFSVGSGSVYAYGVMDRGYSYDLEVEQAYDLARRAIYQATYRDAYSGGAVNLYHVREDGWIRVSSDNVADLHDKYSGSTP

[5] = target: T3, trypsin-like activity of purified rabbit muscle 20S proteasome (Oryctolagus cuniculus, UniProt G1SWK8); assay: In vitro inhibition of 20S proteasome trypsin-like activity (Boc-LRR-AMC); conditions: under the conditions tested
T3 sequence (G1SWK8 1-271): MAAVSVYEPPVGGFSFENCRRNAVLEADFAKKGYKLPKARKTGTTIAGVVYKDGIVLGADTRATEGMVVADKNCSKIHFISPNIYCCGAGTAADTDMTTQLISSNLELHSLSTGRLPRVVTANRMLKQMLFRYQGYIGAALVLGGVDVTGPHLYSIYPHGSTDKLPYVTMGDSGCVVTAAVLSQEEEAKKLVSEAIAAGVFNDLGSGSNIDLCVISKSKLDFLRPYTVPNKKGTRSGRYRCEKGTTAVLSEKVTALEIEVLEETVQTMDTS

[6] = tested on: B16-F10; assay: Cell growth inhibition (resazurin), B16-F10
[7] = tested on: RPMI 8226; assay: Cell growth inhibition (resazurin), RPMI 8226
[8] = tested on: NCI-H292; assay: Cell growth inhibition (resazurin), NCI-H292
[9] = tested on: OVCAR-3; assay: Cell growth inhibition (resazurin), OVCAR-3; conditions: for EC50: 48 hours drug exposure
[10] = tested on: U266; assay: Cell growth inhibition (resazurin), U266; conditions: for EC50: 48 hours drug exposure
[11] = target: T3, trypsin-like activity of purified rabbit muscle 20S proteasome; assay: biochemical
[12] = tested on: MDA-MB-231; assay: Cell growth inhibition (resazurin), MDA-MB-231
[13] = tested on: PC-3; assay: Cell growth inhibition (resazurin), PC-3; type: cell-based, human

C[C@@]12OC(=O)[C@]1(C(O)[C@@H]1C=CCCC1)NC(=O)[C@@H]2CCI (single isomer, unassigned) [Formula II-19]
EC50 ([1]; HEK293, read-out: EC50, NF-κB-mediated luciferase reporter gene assay, Table 5, values in nM, 1 hr pretreatment, TNF-α 6 hr): 7 nM | EC50 ([1]; HEK293, read-out: NF-κB EC50, Table 12): 10 nM | effect on luciferase activity upon TNF-α stimulation, in words ([1]; pretreatment of NF-κB/Luc 293 cells): dose-dependent decrease | EC50 ([2]; EC50 Caspase-like, Table 6, values in nM): 573 nM and 739 nM | EC50 ([2]; EC50 values, caspase-like activity, summary of Table 6): 213 to 850 nM | EC50 ([2]; Proteasome Caspase-like EC50, Table 12): 573 nM and 739 nM | EC50 ([3]; Homo sapiens, HT-29, 48 h, read-out: EC50 against HT-29, Table 1, 48 hours drug exposure, mean ± SD where n≥3): 0.011 ± 0.0016 µM | cytotoxicity against HT-29, in words ([3]; from EC50 values): cytotoxic | EC50 ([4]; EC50 Chymotrypsin-like, Table 6, values in nM): 3 nM | EC50 ([4]; Proteasome Chymotrypsin-like EC50, Table 12): 3 nM | inhibition of the trypsin-like activity of the 20S proteasome, in words [5]: able to inhibit | EC50 ([6]; Mus musculus, B16-F10, 48 h, read-out: EC50 against B16-F10, Table 1, 48 hours drug exposure, mean ± SD where n≥3): 0.013 ± 0.0019 µM | cytotoxicity against B16-F10, in words ([6]; from EC50 values): cytotoxic | EC50 ([7]; Homo sapiens, RPMI-8226, 48 h, read-out: EC50 against RPMI 8226, Table 1, 48 hours drug exposure): 0.0059 µM | EC50 ([7]; Homo sapiens, RPMI-8226, 48 h, read-out: RPMI 8226 EC50, Table 2, 48 hours drug exposure, mean ± SD where n≥3): 0.0059 µM | EC50 ([7]; Homo sapiens, RPMI-8226, read-out: Cytotoxicity RPMI EC50, Table 12): 0.006 µM | cytotoxicity against RPMI 8226, in words ([7]; from EC50 values): cytotoxic | EC50 ([7]; read-out: Cytotoxicity RPMI EC50, Table 12): 0.007 µM | EC50 ([7]; read-out: EC50 against RPMI 8226, Table 1, 48 hours drug exposure): 0.0071 µM | EC50 ([7]; read-out: RPMI 8226 EC50, Table 2, 48 hours drug exposure, mean ± SD where n≥3): 0.0071 µM | EC50 ([8]; Homo sapiens, NCI-H292, 48 h, read-out: EC50 against NCI-H292, Table 1, 48 hours drug exposure, mean ± SD where n≥3): 0.027 ± 0.0038 µM | cytotoxicity against NCI-H292, in words ([8]; from EC50 values): cytotoxic | EC50 ([9]; Homo sapiens, OVCAR-3, 48 h, read-out: EC50 against OVCAR-3, Table 1): 0.024 µM | cytotoxicity against OVCAR-3, in words ([9]; from EC50 values): cytotoxic | EC50 ([9]; read-out: EC50 against OVCAR-3, Table 1): 0.02 µM | EC50 ([10]; Homo sapiens, U-266, 48 h, read-out: EC50 against U266, Table 1): 0.0032 µM | EC50 ([10]; Homo sapiens, U-266, 48 h, read-out: U266 EC50, Table 2): 0.0032 µM | cytotoxicity against U266, in words ([10]; from EC50 values): cytotoxic | EC50 ([10]; read-out: EC50 against U266, Table 1): 0.0034 µM | EC50 ([10]; read-out: U266 EC50, Table 2): 0.0034 µM | EC50 [11]: 0.013 µM and 0.015 µM | EC50 ([12]; Homo sapiens, MDA-MB-231, 48 h, read-out: EC50 against MDA-MB-231, Table 1, 48 hours drug exposure, mean ± SD where n≥3): 0.014 ± 0.0032 µM | cytotoxicity against MDA-MB-231, in words ([12]; from EC50 values): cytotoxic | EC50 ([13]; Homo sapiens, PC-3, 48 h, Table 1, 48 hours drug exposure, mean ± SD where n≥3, read-out: EC50 against PC-3): 0.029 ± 0.004 µM | cytotoxicity against PC-3, in words ([13]; from EC50 values): cytotoxic
